Activity calls are given as the source filed them.

Broadly, the IC50 is the midpoint of a concentration-inhibition curve. In general, EC50 refers to the concentration at which the effect is half-maximal. Usually AC50 stands for the midpoint of the concentration-response curve, whichever way the signal moves.

Assay [1] deals with Neuropeptide Y receptor type 2 (Homo sapiens, UniProt P49146). The experiment in a line: IC50 for human NPY-Y2 blockade – cell-based, counter-screen for NPY-Y1 antagonist project, dose response (AID 1278). The format is functional.
The target of assay [2] is Neuropeptide Y receptor type 1 (Homo sapiens, UniProt P25929). The assay can be described thus: IC50 of human NPY-Y1 blockers – cell-based, dose response (AID 1277). The format is functional.
Assay [3] concerns the target T1, Short transient receptor potential channel 4 (Mus musculus, UniProt Q9QUQ5).
T1 sequence (Q9QUQ5 whole entry): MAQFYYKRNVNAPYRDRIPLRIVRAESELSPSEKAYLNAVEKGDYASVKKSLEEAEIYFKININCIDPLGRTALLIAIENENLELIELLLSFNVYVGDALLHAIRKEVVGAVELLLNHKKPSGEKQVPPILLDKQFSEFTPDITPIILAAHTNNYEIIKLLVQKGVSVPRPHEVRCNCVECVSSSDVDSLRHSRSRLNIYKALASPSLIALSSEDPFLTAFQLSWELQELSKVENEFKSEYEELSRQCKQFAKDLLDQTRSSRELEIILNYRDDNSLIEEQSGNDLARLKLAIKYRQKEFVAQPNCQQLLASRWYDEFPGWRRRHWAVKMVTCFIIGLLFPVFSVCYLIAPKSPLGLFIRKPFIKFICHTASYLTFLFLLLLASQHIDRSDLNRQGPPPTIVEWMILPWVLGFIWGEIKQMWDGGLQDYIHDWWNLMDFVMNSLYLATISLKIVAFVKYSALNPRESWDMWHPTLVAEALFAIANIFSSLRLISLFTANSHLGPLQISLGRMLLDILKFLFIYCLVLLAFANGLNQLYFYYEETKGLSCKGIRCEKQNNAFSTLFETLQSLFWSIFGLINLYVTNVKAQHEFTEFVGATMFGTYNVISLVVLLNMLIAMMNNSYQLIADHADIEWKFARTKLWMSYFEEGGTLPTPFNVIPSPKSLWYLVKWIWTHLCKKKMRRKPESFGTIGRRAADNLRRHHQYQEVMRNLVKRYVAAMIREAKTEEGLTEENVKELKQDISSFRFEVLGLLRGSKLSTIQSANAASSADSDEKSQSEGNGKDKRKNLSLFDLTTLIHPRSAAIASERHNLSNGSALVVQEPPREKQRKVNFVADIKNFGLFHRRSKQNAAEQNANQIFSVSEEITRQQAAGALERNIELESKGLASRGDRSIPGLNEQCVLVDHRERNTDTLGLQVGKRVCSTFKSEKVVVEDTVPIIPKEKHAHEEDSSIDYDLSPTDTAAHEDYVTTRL
The assay can be described thus: calcium entry via TRPC4 opening agents – cell-based, HEK293 TRPC4/mu-opioid, Fluo-4 calcium, dose response (AID 434937). The format is functional.

For another assay, the target named is Galanin receptor type 3 (Homo sapiens, UniProt O60755). The experiment in a line: Fluorescence-based cell-based primary high throughput dose response assay to identify antagonists of the Galanin Receptor 3 (GalR3). Format: functional.
The nature of another assay: cells. The format is functional, cell-based. The settings on record: HEK-CNG.
Assay [4] concerns the target T2, RNA-binding protein pos-1 (Caenorhabditis elegans, UniProt G5EF15).
T2 sequence (G5EF15 whole entry): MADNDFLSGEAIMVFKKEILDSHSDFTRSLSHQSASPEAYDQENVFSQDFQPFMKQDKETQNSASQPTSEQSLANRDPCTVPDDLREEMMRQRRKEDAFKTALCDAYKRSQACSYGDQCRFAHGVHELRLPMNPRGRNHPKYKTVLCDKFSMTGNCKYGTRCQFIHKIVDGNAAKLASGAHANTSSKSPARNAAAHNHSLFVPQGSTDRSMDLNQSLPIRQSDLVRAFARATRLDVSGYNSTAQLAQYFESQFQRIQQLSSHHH
The experiment in a line: disruptors of C. elegans POS-1 RNA interaction – biochemical, fluorescence polarization, dose response (AID 1964).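 Note: purified POS-1 fused to maltose binding protein made in E. coli; potency of compounds blocking POS-1 binding to fluorescent RNA.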 Background: Polarisation of emitted light reports the rotation of a fluorescent probe.

A short description of assay [5]: antibacterial activity against E. coli NEB5alpha – luminescence, counter-screen for MEX-5/POS-1 RNA-binding inhibitor project, dose response (AID 1959). Format: functional.
Assay [6] addresses Luciferin 4-monooxygenase (Photinus pyralis, UniProt P08659). The experiment in a line: inhibition of purified Photinus pyralis luciferase – biochemical, luminescence, dose response (AID 1891).
Assay [7] is described as follows: Luminescence Cell-Based Dose Confirmation HTS to Identify Inhibitors of Platelet Dense Granule Release. [Related pubchem assays: 1663 (Primary HTS), 1678 (Summary of Project)]. Format: functional.
Assay [8] can be described thus: mitochondrial function rescue without frataxin homolog – Friedreich's ataxia, plus single-dose screen, dose response (AID 1465).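 Note: yeast depleted of Yfh1p frataxin homolog grown on glycerol needing respiration; WST-1 tetrazolium dye reduction as measure of cellular dehydrogenase metabolic activity.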 The format is functional.
The target of assay [9] is Disintegrin and metalloproteinase domain-containing protein 17 (Homo sapiens, UniProt P78536). The experiment in a line: exosite inhibitors of ADAM17, dose response, biochemical (AID 743260).
The nature of assay [10]: inhibition of ADAM10 peptide cleavage – biochemical, FRET peptide substrate, recombinant human ADAM10, selectivity assay for ADAM17 exosite inhibitor project, dose response (AID 743259).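 Note: ADAM10 enzyme cleaving a FRET peptide substrate.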
Assay [11] has as its system Streptococcus sp. 'group A'. The experiment in a line: Streptococcus pyogenes SK(-)GAS viability under kanamycin – luminescence, BacTiterGlo, confirmation, counter-screen for streptokinase expression inhibitor project, dose response (AID 1900). Format: functional, organism-based. Background: A counterscreen serves to expose hits that act by an unwanted route or on another target.

The target of a further assay is T3, Streptokinase A (Streptococcus pyogenes serotype M1, UniProt P10520).
T3 sequence (P10520 whole entry): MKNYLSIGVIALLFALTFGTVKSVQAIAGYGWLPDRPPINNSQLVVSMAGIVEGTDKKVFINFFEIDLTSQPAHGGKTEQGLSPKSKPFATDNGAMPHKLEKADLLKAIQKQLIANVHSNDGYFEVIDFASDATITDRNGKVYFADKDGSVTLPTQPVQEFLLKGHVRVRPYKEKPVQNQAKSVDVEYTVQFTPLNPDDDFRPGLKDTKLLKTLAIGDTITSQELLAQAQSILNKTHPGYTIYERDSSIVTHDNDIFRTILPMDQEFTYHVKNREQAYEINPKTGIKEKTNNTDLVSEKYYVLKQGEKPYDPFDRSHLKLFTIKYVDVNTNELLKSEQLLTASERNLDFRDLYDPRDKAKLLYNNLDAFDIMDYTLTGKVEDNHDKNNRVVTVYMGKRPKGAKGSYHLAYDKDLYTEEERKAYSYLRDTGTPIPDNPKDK
The experiment in a line: viability-normalized secreted streptokinase activity reduction – plasminogen activation absorbance, OD405, dose response (AID 1914).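 Note: secreted streptokinase activity via plasminogen activation per viability signal from cell pellet.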 Format: functional, Streptococcus pyogenes M1 GAS.

A short description of assay [12]: Fluorescence Cell-Based Dose Response to Identify Inhibitors of Thrombin Receptor-Activating Peptide SFLLRN-Mediated P-Selectin Induction on Platelets. [Related pubchem assays: 1663 (Primary HTS), 1889 (retest at dose ), 1891 (counterscreen), 1678 (Project Summary)]. Format: functional.
The test system of the next assay is Streptococcus. The experiment in a line: GAS UMAA2166 growth inhibition – luminescence, BacTiterGlo, counter-screen for streptokinase expression inhibitor project, dose response (AID 1915).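 Note: potency for reduction of bacterial viability or growth.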 Format: functional, organism-based.
Assay [13] deals with Peroxisome proliferator-activated receptor gamma/Nuclear receptor corepressor 2 (Homo sapiens, UniProt P37231+Q9Y618). The experiment in a line: Counterscreen for NR2E3 inverse agonists: TR-FRET-based biochemical high throughput dose response assay to identify inverse agonists of the interaction between peroxisome proliferator-activated receptor gamma (PPARg) and nuclear receptor co-repressor 2 (NCOR2). Format: functional.

Assay [14] has as its target Photoreceptor-specific nuclear receptor (Homo sapiens, UniProt Q9Y5X4). The experiment in a line: ligands suppressing NR2E3 nuclear receptor activity – biochemical, TR-FRET, dose response (AID 463256). Format: functional. A general note: Time-resolved FRET reads energy transfer from a long-lived donor to a nearby acceptor.
The target in the next assay is Galanin receptor type 2 (Homo sapiens, UniProt O43603). The assay can be described thus: Dose Response cell-based high-throughput screening assay to identify antagonists of galanin receptor 2 (GALR2). [Related pubchem assays: 828, 866 ]. The format is functional.
A further assay has as its system Jurkat. The assay can be described thus: blockers of NF-kB activation in T cells – Jurkat, luciferase reporter, luminescence, B- and T-cell, dose response (AID 489004).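 Note: NF-kB luciferase reporter Jurkat cells stimulated with PMA plus ionomycin.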 The format is functional, cell-based. The settings on record: Homo sapiens.
Assay [15] in a line: HEK-293T viability loss, compound-treated – cell-based, uHTS hits, cytotoxicity control for B/T-cell NF-kB inhibitor project, dose response (AID 489019).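 Note: IC50 reflects cytotoxicity as loss of cell viability.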 Format: functional.
In another assay the test system is INS1. The assay can be described thus: INS-1E survival protection against cytokine death – cell-based, luminescence, retest, dose response (AID 449756).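 Note: cell death triggered by IL-1 beta plus TNF-alpha plus IFN-gamma mixture; protective hits raise ATP signal compared with cytokine alone wells.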 The format is functional. The settings on record: Rattus norvegicus.
Assay [16] in a line: reduction of Shn3 3'UTR-driven luciferase in osteoblasts – cell-based, Clone20 osteoblasts, firefly luciferase, cherry-picked, dose response (AID 624132).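 Note: firefly luciferase luminescence from reporter carrying the Shn3 3'UTR in osteoblasts.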 Format: functional.
Assay [17] is described as follows: loss of viability in HepG2 cells – cell-based, CellTiter-Glo, cherry-picked, cytotoxicity control for Shn3 inhibitor project, dose response (AID 624134). The format is functional.
Assay [18] is described as follows: non-specific 3'UTR reporter inhibition in Clone20-Shn3RL – cell-based, Renilla luciferase, cherry-picked, counter-screen for Shn3 inhibitor project, dose response (AID 624133). The format is functional.
A short description of assay [19]: blockers of HIV-1 envelope-mediated cell-cell fusion – cherry-pick, dose response (AID 652057). The format is functional, cell-based.
Assay [20] in a line: blockers of HIV-1 ZM109 envelope-driven cell-cell fusion – HeLa effector, CEM target cells, luciferase, cherry-pick, dose response (AID 652058).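 Note: luciferase signal from HIV-1 Env mediated cell-cell fusion of effector and target cells.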 The format is functional, cell-based.
The nature of assay [21]: off-target signal loss in HeLa-CEM21 co-culture – HeLa F-luc CTL cells, cherry-picked, counter-screen for HIV-1 Env fusion inhibitor project, dose response (AID 652040).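 Note: potency for signal decrease marking cytotoxic or nonspecific inhibition.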 Format: functional, cell-based.
A short description of assay [22]: HIV-1 AD8 envelope cell-cell fusion blockers – cherry-pick, dose response (AID 652062).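 Note: luciferase signal from cell-cell fusion driven by HIV-1 clade B AD8 Env; potency is for inhibitors of fusion seen as a drop in luminescence.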 Format: functional, cell-based.
The target of assay [23] is COUP transcription factor 2 (Homo sapiens, UniProt P24468). The experiment in a line: Luminescence-based cell-based high throughput dose response assay to identify inhibitors of COUP-TFII (NR2F2). Format: functional.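 Note: HEK293 cells transiently cotransfected with COUP-TFII expression vector and reporter; luciferase reporter luminescence driven by COUP-TFII from the pX2-168 reporter plasmid.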
Assay [24] can be described thus: viability loss in CEM21 cells – cell-based, plate reader, dry powder, cytotoxicity control, dose response (AID 687026). Format: functional.

Sequence of Luciferin 4-monooxygenase (P08659 whole entry): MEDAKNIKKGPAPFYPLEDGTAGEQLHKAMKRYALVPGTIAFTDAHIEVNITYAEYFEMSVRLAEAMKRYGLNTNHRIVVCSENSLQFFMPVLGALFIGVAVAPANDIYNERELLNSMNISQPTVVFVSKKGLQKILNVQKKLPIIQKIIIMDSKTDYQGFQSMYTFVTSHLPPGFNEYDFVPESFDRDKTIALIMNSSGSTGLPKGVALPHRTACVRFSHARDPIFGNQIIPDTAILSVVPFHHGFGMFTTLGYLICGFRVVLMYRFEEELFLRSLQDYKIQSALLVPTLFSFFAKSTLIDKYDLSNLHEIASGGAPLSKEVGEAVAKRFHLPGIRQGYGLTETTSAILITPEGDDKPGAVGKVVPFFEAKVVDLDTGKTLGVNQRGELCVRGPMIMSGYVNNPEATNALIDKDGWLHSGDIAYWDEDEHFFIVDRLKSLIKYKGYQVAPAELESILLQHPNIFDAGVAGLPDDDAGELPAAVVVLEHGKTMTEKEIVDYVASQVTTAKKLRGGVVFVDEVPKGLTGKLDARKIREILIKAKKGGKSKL
Sequence of Peroxisome proliferator-activated receptor gamma/Nuclear receptor corepressor 2 (P37231 whole entry): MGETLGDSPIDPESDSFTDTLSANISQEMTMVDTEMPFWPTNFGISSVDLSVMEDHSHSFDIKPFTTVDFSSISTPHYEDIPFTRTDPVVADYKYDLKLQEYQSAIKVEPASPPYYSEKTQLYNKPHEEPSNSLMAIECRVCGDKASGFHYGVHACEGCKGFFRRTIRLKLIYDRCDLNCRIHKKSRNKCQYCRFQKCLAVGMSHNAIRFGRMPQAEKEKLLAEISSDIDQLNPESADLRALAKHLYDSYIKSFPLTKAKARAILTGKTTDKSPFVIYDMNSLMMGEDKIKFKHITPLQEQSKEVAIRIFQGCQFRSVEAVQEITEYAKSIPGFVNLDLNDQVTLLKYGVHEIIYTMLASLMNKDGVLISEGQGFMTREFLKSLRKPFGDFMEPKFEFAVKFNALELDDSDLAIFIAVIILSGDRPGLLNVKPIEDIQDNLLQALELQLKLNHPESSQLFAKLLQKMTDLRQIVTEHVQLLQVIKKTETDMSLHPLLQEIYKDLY
Sequence of Peroxisome proliferator-activated receptor gamma/Nuclear receptor corepressor 2 (Q9Y618 whole entry): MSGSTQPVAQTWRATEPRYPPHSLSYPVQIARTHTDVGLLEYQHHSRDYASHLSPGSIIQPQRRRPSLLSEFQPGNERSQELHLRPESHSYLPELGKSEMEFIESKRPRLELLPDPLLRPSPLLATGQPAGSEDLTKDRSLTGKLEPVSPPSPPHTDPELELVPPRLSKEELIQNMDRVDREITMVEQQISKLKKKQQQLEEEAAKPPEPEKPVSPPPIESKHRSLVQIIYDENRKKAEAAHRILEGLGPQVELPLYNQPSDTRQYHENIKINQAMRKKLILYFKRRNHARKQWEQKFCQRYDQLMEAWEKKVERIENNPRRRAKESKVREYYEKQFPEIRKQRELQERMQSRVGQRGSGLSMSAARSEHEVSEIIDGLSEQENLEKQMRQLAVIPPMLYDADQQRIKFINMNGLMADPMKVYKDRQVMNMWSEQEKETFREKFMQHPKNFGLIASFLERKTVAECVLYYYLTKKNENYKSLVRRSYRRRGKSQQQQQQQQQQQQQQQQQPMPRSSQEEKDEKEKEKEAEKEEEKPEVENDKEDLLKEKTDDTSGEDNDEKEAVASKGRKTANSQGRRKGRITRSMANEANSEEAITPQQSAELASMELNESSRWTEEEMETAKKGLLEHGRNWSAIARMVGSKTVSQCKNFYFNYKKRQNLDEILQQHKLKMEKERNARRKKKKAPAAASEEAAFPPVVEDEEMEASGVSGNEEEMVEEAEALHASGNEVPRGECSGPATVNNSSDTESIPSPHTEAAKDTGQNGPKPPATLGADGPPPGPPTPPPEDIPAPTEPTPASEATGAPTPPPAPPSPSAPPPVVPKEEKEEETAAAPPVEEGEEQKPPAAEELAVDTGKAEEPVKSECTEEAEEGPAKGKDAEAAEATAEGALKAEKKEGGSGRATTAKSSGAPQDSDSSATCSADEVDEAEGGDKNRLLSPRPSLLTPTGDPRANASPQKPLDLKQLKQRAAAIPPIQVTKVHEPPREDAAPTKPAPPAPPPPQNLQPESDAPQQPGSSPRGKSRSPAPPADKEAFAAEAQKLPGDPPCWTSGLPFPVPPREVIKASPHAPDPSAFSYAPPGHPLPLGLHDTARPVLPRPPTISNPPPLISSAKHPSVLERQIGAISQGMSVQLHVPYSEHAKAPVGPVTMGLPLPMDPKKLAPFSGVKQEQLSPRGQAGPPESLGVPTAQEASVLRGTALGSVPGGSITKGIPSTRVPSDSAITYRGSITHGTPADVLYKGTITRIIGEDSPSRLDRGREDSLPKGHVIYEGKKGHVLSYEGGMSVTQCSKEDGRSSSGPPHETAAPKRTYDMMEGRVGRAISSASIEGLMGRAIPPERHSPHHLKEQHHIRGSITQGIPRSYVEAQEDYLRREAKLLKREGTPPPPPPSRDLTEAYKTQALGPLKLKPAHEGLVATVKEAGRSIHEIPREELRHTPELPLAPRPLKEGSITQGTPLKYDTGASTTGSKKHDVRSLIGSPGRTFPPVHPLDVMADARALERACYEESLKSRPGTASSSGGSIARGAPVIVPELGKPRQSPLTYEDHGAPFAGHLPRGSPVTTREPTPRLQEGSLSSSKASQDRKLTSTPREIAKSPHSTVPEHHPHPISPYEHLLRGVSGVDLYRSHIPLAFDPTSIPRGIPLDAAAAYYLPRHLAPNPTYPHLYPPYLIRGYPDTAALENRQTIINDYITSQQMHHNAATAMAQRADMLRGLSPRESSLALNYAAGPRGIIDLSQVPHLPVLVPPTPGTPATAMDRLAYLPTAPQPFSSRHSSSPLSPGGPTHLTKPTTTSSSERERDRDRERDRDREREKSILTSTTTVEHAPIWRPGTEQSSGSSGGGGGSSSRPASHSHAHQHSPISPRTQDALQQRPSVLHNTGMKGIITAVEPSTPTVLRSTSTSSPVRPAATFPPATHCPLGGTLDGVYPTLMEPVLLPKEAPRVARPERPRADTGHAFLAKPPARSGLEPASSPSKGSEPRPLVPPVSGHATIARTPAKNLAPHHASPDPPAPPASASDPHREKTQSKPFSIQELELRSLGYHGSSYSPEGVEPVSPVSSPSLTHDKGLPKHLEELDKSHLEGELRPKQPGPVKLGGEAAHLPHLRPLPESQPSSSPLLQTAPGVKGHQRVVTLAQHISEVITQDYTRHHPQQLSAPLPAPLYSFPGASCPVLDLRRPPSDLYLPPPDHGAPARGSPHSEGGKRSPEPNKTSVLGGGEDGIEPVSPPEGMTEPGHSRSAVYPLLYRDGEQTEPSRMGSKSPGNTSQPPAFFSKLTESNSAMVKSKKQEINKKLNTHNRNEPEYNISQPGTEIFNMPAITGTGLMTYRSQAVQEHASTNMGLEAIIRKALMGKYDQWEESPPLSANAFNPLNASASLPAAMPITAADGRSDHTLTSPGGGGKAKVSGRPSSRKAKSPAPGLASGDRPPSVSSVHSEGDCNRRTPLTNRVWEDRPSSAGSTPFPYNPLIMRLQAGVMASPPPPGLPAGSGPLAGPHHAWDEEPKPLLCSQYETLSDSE
Sequence of Disintegrin and metalloproteinase domain-containing protein 17 (P78536 whole entry, the tested form may be a part): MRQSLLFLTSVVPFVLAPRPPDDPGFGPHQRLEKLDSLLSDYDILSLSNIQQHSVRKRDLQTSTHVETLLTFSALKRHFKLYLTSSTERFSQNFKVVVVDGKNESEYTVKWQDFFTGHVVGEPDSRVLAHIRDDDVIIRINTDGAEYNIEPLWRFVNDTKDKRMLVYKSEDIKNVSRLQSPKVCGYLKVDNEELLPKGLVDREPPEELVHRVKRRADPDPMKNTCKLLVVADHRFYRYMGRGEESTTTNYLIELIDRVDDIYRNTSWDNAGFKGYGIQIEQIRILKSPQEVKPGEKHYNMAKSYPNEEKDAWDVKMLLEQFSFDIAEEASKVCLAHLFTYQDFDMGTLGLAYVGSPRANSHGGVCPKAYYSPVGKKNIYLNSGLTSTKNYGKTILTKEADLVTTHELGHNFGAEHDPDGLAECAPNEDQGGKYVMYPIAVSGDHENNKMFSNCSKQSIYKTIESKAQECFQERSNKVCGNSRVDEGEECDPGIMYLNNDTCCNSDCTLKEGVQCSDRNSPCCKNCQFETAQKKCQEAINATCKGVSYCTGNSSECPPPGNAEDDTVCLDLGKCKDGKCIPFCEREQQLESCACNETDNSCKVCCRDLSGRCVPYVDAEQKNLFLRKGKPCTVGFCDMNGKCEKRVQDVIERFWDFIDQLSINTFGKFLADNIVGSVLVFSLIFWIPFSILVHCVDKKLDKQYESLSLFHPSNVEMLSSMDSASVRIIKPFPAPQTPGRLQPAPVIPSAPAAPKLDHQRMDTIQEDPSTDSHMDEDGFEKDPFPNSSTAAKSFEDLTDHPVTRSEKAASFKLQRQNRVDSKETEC
Sequence of Galanin receptor type 3 (O60755 whole entry): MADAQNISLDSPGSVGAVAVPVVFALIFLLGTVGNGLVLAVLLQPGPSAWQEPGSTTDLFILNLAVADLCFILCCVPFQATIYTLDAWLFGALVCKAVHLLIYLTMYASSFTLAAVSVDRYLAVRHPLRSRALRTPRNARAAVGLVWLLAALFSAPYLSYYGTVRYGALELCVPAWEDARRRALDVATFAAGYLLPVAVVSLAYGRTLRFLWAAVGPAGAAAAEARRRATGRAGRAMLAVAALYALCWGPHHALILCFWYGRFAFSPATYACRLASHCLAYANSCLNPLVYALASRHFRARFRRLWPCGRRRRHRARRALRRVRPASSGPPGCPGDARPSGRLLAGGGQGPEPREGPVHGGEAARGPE

With `CC(=O)OCC[N+](C)(C)C`, the half-inhibitory concentration (IC50) in [1] was > 35 µM (not active); in assay [2], > 35 µM (not active); at Galanin receptor type 3, 1.66 µM (active). For the same compound, the figures for the EC50 (in [3]; in the assay “cells”) were 0.0667 µM (active) and > 29.9 µM (inactive), respectively.

In the case of `CCOc1ccc(N/N=C2/C(=O)Nn3c2nc(C)cc3=O)cc1`, the EC50 is 213 µM (active) in assay [4]; 16.2 µM (active) in [5]; 0.535 µM (active) in assay [6]; 9.37 µM (active) in assay [7]; > 100 µM (active) in [8]. The IC50 in assay [9] was > 69.5 µM (inactive); in assay [10], 24.7 µM (inactive).

As for `CC(=O)Oc1ccc(-c2nc(-c3cccnc3)no2)cc1`, the concentration for a half-maximal effect (EC50) in [11] was 4.89 µM (active); at Streptokinase A, > 150 µM (not active); in assay [6] it was 8.16 µM (active); in [7], < 0.701 µM (active); in assay [12] it was 30 µM (not active); in the assay on Streptococcus it was 17.3 µM (active).

`CCCS(=O)(=O)N1CCC(C(=O)NCCCN(CC)c2cccc(C)c2)CC1`: the IC50 in [13] and in assay [14] was > 4.43 µM (active) each time.

As to `CCOc1ccc(S(=O)(=O)NCc2ccncc2)cc1`, the half-inhibitory concentration (IC50) on Galanin receptor type 2 was > 42 µM (not active); with Jurkat, > 80 µM (inactive); in [15], > 80 µM (inactive); in assay [23], 2.27 µM (active). Also, the AC50 in the assay on INS1 is 1.08 µM (active); in assay [16], 0.261 µM (active); in assay [17], 0.603 µM (active); in assay [18], 10.5 µM (active); in assay [19] it was 1.36 µM (active); in assay [20], < 0.26 µM (active). The AC50 is > 70 µM (inactive) in [21], 2.72 µM (active) in assay [22] and > 70 µM (inactive) in assay [24].

(Values after ChEMBL document CHEMBL1201862, “PubChem BioAssay data set” (2004).)
